Numbers after ± are expanded uncertainties.
Details: Gas, Oscillating disk viscometry

O [water]
Details | viscosity [mPa·s]
297.33 K, Mass density=0.092 kg/m3 | 0.00963 ± 0.00038
297.76 K, Mass density=0.023 kg/m3 | 0.009649 ± 0.00038
298.16 K, Mass density=0.092 kg/m3 | 0.009654 ± 0.00038
298.69 K, Mass density=0.129 kg/m3 | 0.009676 ± 0.00038
298.99 K, Mass density=0.129 kg/m3 | 0.009697 ± 0.00038
299.38 K, Mass density=0.018 kg/m3 | 0.009722 ± 0.00038
300.35 K, Mass density=0.018 kg/m3 | 0.009746 ± 0.00038
301.55 K, Mass density=0.023 kg/m3 | 0.009792 ± 0.00038
310.44 K, Mass density=0.129 kg/m3 | 0.01008 ± 0.00039
311.12 K, Mass density=0.023 kg/m3 | 0.01011 ± 0.00039
311.13 K, Mass density=0.092 kg/m3 | 0.0101 ± 0.00039
311.52 K, Mass density=0.018 kg/m3 | 0.01013 ± 0.00039
325.16 K, Mass density=0.092 kg/m3 | 0.01059 ± 0.0004
325.62 K, Mass density=0.023 kg/m3 | 0.01063 ± 0.0004
326.81 K, Mass density=0.129 kg/m3 | 0.01064 ± 0.0004
327.19 K, Mass density=0.018 kg/m3 | 0.01067 ± 0.0004
338.27 K, Mass density=0.129 kg/m3 | 0.01104 ± 0.00041
338.47 K, Mass density=0.023 kg/m3 | 0.01107 ± 0.00041
339.05 K, Mass density=0.018 kg/m3 | 0.01109 ± 0.00041
339.49 K, Mass density=0.092 kg/m3 | 0.01109 ± 0.00041
352.03 K, Mass density=0.092 kg/m3 | 0.01154 ± 0.00042
352.69 K, Mass density=0.018 kg/m3 | 0.01158 ± 0.00042
352.79 K, Mass density=0.129 kg/m3 | 0.01156 ± 0.00042
352.84 K, Mass density=0.023 kg/m3 | 0.01158 ± 0.00042
365.89 K, Mass density=0.092 kg/m3 | 0.01204 ± 0.00044
366.46 K, Mass density=0.129 kg/m3 | 0.01205 ± 0.00044
366.97 K, Mass density=0.018 kg/m3 | 0.01208 ± 0.00044
367.44 K, Mass density=0.023 kg/m3 | 0.0121 ± 0.00044
380.14 K, Mass density=0.092 kg/m3 | 0.01257 ± 0.00045
380.24 K, Mass density=0.092 kg/m3 | 0.01257 ± 0.00045
380.61 K, Mass density=0.129 kg/m3 | 0.01257 ± 0.00045
380.86 K, Mass density=0.018 kg/m3 | 0.0126 ± 0.00045
380.91 K, Mass density=0.129 kg/m3 | 0.0126 ± 0.00045
381.03 K, Mass density=0.023 kg/m3 | 0.0126 ± 0.00045
382.98 K, Mass density=0.023 kg/m3 | 0.01267 ± 0.00045
384.22 K, Mass density=0.018 kg/m3 | 0.01273 ± 0.00045
394.56 K, Mass density=0.092 kg/m3 | 0.01311 ± 0.00046
394.75 K, Mass density=0.129 kg/m3 | 0.0131 ± 0.00046
394.87 K, Mass density=0.018 kg/m3 | 0.01313 ± 0.00046
395.16 K, Mass density=0.023 kg/m3 | 0.01312 ± 0.00046
408.37 K, Mass density=0.092 kg/m3 | 0.01363 ± 0.00047
408.69 K, Mass density=0.129 kg/m3 | 0.01365 ± 0.00047
409.25 K, Mass density=0.023 kg/m3 | 0.01365 ± 0.00047
410.22 K, Mass density=0.018 kg/m3 | 0.0137 ± 0.00047
422.63 K, Mass density=0.092 kg/m3 | 0.01418 ± 0.00049
423.17 K, Mass density=0.129 kg/m3 | 0.01421 ± 0.00049
423.35 K, Mass density=0.023 kg/m3 | 0.01419 ± 0.00049
423.87 K, Mass density=0.018 kg/m3 | 0.01423 ± 0.00049
437.65 K, Mass density=0.092 kg/m3 | 0.01479 ± 0.0005
437.93 K, Mass density=0.129 kg/m3 | 0.01479 ± 0.0005
438.48 K, Mass density=0.023 kg/m3 | 0.01478 ± 0.0005
438.75 K, Mass density=0.018 kg/m3 | 0.01482 ± 0.0005
466.44 K, Mass density=0.092 kg/m3 | 0.01596 ± 0.00058
466.96 K, Mass density=0.129 kg/m3 | 0.01598 ± 0.00058
468.21 K, Mass density=0.018 kg/m3 | 0.01601 ± 0.00058
468.74 K, Mass density=0.023 kg/m3 | 0.01598 ± 0.00058
496.27 K, Mass density=0.023 kg/m3 | 0.0171 ± 0.00061
496.94 K, Mass density=0.092 kg/m3 | 0.01723 ± 0.00061
497.01 K, Mass density=0.129 kg/m3 | 0.01727 ± 0.00061
497.08 K, Mass density=0.018 kg/m3 | 0.01723 ± 0.00061

Source: the NIST ThermoML archive (doi:10.1021/acs.jced.5b00599)
